Source: patent publication US12655460B2, “Rapid antimicrobial susceptibility testing by image analysis” (Beth Israel Deaconess Medical Center, Inc., priority 2019, dated 2026)
Values after ≈ are worked out from the molar mass of the structure shown.

How the values were obtained:
[1] = Rapid antimicrobial susceptibility testing (MIC) by flatbed-scanner imaging of doubling dilutions in a well plate, cefepime; type: cell-based
From the text: The dispensing technology may use well plate 205, which may be a standard 96-, 384-, or 1536-well microtiter plate. Well plate 205 contains doubling dilutions of antimicrobials. Any antimicrobials can be used. Antibiotics are mentioned as an example of an antimicrobial, but any antimicrobial or other treatment agent (e.g. antifungal, antiviral, anti-parasitic) can be used unless context clearly dictates otherwise. The doubling dilution series can be prepared at the time of use, or plates with doubling dilutions can be pre-made and stored with lyophilized antibiotics or with antibiotics in broth that are frozen and thawed before use. […] The positive blood culture broth or dilutions of the positive blood culture broth can be added to the wells using any of several liquid handling devices or manually or through use of an inkjet printer 210 which we determined can quantitatively print out positive blood culture broth.
(§1) Typically positive blood-culture broth has organisms at 5×10^9 colony-forming units per mL. In our experiments, we determined that this could be diluted 5-fold in sterile water and 0.3% tween-20 and this dilution dispensed at 250 nl per well to create a starting inoculum of approximately 2.5×10^7 per mL in wells in a 384 well plate containing a volume of 10 μl. […]

E. coli = test: Rapid antimicrobial susceptibility testing (MIC) by flatbed-scanner imaging of doubling dilutions in a well plate, gentamicin; type: cell-based; set-up: unit not given here; settings: 37° C.
From the text: The dispensing technology may use well plate 205, which may be a standard 96-, 384-, or 1536-well microtiter plate. Well plate 205 contains doubling dilutions of antimicrobials. Any antimicrobials can be used. Antibiotics are mentioned as an example of an antimicrobial, but any antimicrobial or other treatment agent (e.g. antifungal, antiviral, anti-parasitic) can be used unless context clearly dictates otherwise. The doubling dilution series can be prepared at the time of use, or plates with doubling dilutions can be pre-made and stored with lyophilized antibiotics or with antibiotics in broth that are frozen and thawed before use. In embodiments, 50 μl of broth are added to wells in well plate 205 and desired two-fold dilutions of antibiotics are added to wells using inkjet printing technology 210 as described in WO 2017/218202 A1, the entire contents of which are incorporated by reference for all purposes. In other embodiments, antibiotics can be added either manually or with any of several suitable liquid handling devices. Positive blood culture broth is then added to the microtiter wells. The positive blood culture broth or dilutions of the positive blood culture broth can be added to the wells using any of several liquid handling devices or manually or through use of an inkjet printer 210 which we determined can quantitatively print out positive blood culture broth.
as §1
We have made use of a CCD flatbed scanner to scan plates. In our example, the plates are incubated in a separate incubator and placed on a plate bed scanner at different time points for reading. Using a flatbed scanner, we have determined that accurate AST results can be obtained with incubation times of 1.5 hours or less. […]

Compound | MIC ([1]; 3 hours of incubation (graph 630)) | MIC ([1]; 4 hours of incubation (graph 640)) | MIC (E. coli; 2 hours of incubation (graph 520)) | MIC (E. coli; 3 hours of incubation (graph 530)) | MIC (E. coli; 4 hours of incubation (graph 540))
CO/N=C(\C(=O)N[C@@H]1C(=O)N2C(C(=O)[O-])=C(C[N+]3(C)CCCC3)CS[C@H]12)c1csc(N)n1 [cefepime] | 31 µg/mL (≈ 64.5 µM) | 31 µg/mL (≈ 64.5 µM) |  |  | 
gentamicin |  |  | 1.0 | 1.0 | 1.0
